Test results as given in US20050118381A1, “Diimonium salt mixtures, aminium salts mixtures and use thereof” (priority 2002, published 2005).

Legend:
Assay type in all cases: physicochemical
[1] = Lightfastness test of dye film containing diimonium salt compound
Description: (§1) 0.3 part of cyanine dye (OM-57) was dissolved in 15 parts of tetrafluoropropanol and 0.04 part of compound No. 2a was added to the solution to prepare coating. The obtained coating was spin coated on a polycarbonate substrate to prepare a dye film (Sample 1Y). The obtained dye film was subjected to a lightfastness test using a weatherometer (Ci4000, made by Atlas Electric Devices Co.) under conditions of light source output: 0.36 W/m^2, bath temperature: 24° C., black panel temperature: 40° C. and humidity: 30% RH for 50 hours, by applying light from the substrate side. Then the residual ratio of the cyanine dye was measured by a spectrophotometer.
Further, dye films were prepared and evaluated in the same manner except that compounds of No. 3a (Sample 2Y), No. 7a (Sample 3Y) and No. 10a (Sample 4Y), compounds of No. 12a (Sample 5Y) and No. 13a (Sample 6Y) and compound No. 19a (Sample 7Y) were used instead of compound No. 2a, and the results are shown in Table 12.
For comparison, a dye film was prepared and evaluated in the same manner except that hexafluoroantimonate of tetrakis{p-di(n-butyl)aminophenyl}phenylenediimonium (Comparative Sample 1Y) was used instead of compound No. 2a.

[2] = Heat resistance stability test of near-infrared absorption filter coat film
Description: (§2) 1.2 parts of compound No. 1a (Sample 1X), No. 6a (Sample 2X) and No. 15a (Sample 3X) was each dissolved in 18.8 parts of MEK. To the solution was added 80 parts of a resin solution obtained by dissolving 25 parts of an acrylic resin (Dianal BR-80, available from Mitsubishi Rayon Co., Ltd.) in 75 parts of MEK to prepare a coating solution. The coating solution was applied to a polyester film in a thickness of 2 to 4 μm and dried at 80° C. to obtain the near-infrared absorption filter of the present invention.
(§3) The obtained coat film was subjected to a heat resistance stability test in a hot air dryer at 80° C. for a predetermined time and a moisture heat resistance stability test in a temperature and humidity controlled apparatus under conditions of 60° C. and 95% RH for a predetermined time. In addition, Samples 1X and 2X were subjected to a lightfastness test using a weatherometer (Ci4000, made by Atlas Electric Devices Co.) under conditions of light source output: 0.36 W/m^2, bath temperature: 24° C., black panel temperature: 40° C. and humidity: 30% RH for 50 hours. After the tests, the color of the film was measured by an ultraviolet/visible light spectrophotometer (UV-2100, made by Shimadzu Corporation) to calculate L*, a*, b* values and stability was evaluated from the variation of the b* value. The results of heat resistance test are shown in Table 9, the results of the moisture heat resistance test are shown in Table 10 and the results of the lightfastness test are shown in Table 11.
(§4) Coat films were prepared and evaluated in the same manner except that hexafluoroantimonate of tetrakis{p-di(n-butyl)aminophenyl}phenylenediimonium (Comparative Sample 1X) and hexafluoroantimonate of tetrakis{p-di(3-cyanopropyl)aminophenyl}phenylenediimonium (Comparative Sample 2X) were used instead of the above compounds.

[3] = Moisture heat resistance stability test of near-infrared absorption filter coat film; details: acrylic resin coat film
Description: as §2, §3, §4

[4] = Lightfastness test of dye film containing aminium salt compound
Description: as §1, with “2b” for “2a”, “1Z).” for “1Y).”, “150” for “50”
Further, dye films were prepared and evaluated in the same manner except that compounds of No. 3b (Sample 2Z), No. 4b (Sample 3Z) and No. 7b (Sample 4Z) and compound No. 12b (Sample 5Z) were used instead of compound No. 2b, and the results are shown in Table 13.
For comparison, a dye film was prepared and evaluated in the same manner except that hexafluoroantimonate of tetrakis{p-di(n-butyl)aminophenyl}phenylenediimonium (Comparative Sample 1Z) was used instead of compound No. 2b.

[5] = Lightfastness test of near-infrared absorption filter coat film; details: acrylic resin coat film
Description: as §2
The obtained coat film was subjected to a heat resistance stability test in a hot air dryer at 80° C. for a predetermined time and a moisture heat resistance stability test in a temperature and humidity controlled apparatus under conditions of 60° C. and 95% RH for a predetermined time. […] After the tests, the color of the film was measured by an ultraviolet/visible light spectrophotometer (UV-2100, made by Shimadzu Corporation) to calculate L*, a*, b* values and stability was evaluated from the variation of the b* value. […]
as §4

[6] = Solubility test of aminium salt compound
Description: Solubility of Compounds No. 1b, No. 3b, No. 4b, No. 6b, No. 7b, No. 12b, No. 13b, No. 14b and No. 15b obtained in the above Examples in diacetone alcohol (DAA), methyl ethyl ketone (MEK), tetrahydrofuran (THF) and methylcellosolve was measured. Measurement of solubility was conducted in the same manner except that hexafluoroantimonate of tetrakis{p-di(3-cyanopropyl)aminophenyl}phenyleneaminium (Comparative Sample 2) and hexafluorophosphate thereof (Comparative Sample 3) were used instead of the above compounds.

[7] = Solubility test of diimonium salt compound
Description: Solubility of compounds No. 1a, No. 3a, No. 6a, No. 2a, No. 7a, No. 13a and No. 12a obtained in the above Examples in diacetone alcohol (DAA), methyl ethyl ketone (MEK) and cyclohexanone was measured. Measurement of solubility was conducted in the same manner except that hexafluoroantimonate of tetrakis{p-di(3-cyanopropyl)aminophenyl}phenylenediimonium (Comparative Sample 1) was used instead of the above compounds.

[8] = dye film: 0.3 part OM-57 + 0.04 part compound on polycarbonate, before irradiation

Compound: CCCCN(CCCC)c1ccc([N+](=C2C=CC(=[N+](c3ccc(N(CCCC)CCCC)cc3)c3ccc(N(CCCC)CCCC)cc3)C=C2)c2ccc(N(CCCC)CCCC)cc2)cc1.[F][Sb-]([F])([F])([F])([F])[F].[F][Sb-]([F])([F])([F])([F])[F] [Comparative Sample 1X, hexafluoroantimonate of tetrakis{p-di(n-butyl)aminophenyl}phenylenediimonium]
- residual ratio of cyanine dye initial stage [1, 8]: 100%
- residual ratio of cyanine dye after 50 hours ([1]; dye film: 0.3 part OM-57 + 0.04 part compound, weatherometer 0.36 W/m^2, 50 hours): 69%
- b* value initial stage ([2]; acrylic resin coat film on polyester film, before hot air dryer 80° C.): 2.85
- b* value after 4 days ([2]; acrylic resin coat film, hot air dryer 80° C., 4 days): 3.65
- b* value after 7 days ([2]; acrylic resin coat film, hot air dryer 80° C., 7 days): 3.93
- b* value after 14 days ([2]; acrylic resin coat film, hot air dryer 80° C., 14 days): 4.30
- b* value after 4 days ([3]; 60° C. and 95% RH, 4 days): 4.23
- b* value after 7 days ([3]; 60° C. and 95% RH, 7 days): 4.69
- b* value after 14 days ([3]; 60° C. and 95% RH, 14 days): 5.55
- b* value initial stage ([3]; before 60° C. and 95% RH): 2.85
- residual ratio of cyanine dye initial stage [4, 8]: 100%
- residual ratio of cyanine dye after 150 hours ([4]; dye film: 0.3 part OM-57 + 0.04 part compound, weatherometer 0.36 W/m^2, 150 hours): 29%
- b* value initial stage ([5]; before weatherometer): 2.85
- b* value after 50 hours ([5]; weatherometer 0.36 W/m^2, 24° C., 30% RH, 50 hours): 6.49

Compound: hexafluoroantimonate of tetrakis{p-di(3-cyanopropyl)aminophenyl}phenyleneaminium [Comparative Sample 2]
- solubility DAA ([6]; in diacetone alcohol (DAA)): 1.2 wt %
- solubility MEK ([6]; in methyl ethyl ketone (MEK)): 1.7 wt %
- solubility THF ([6]; in tetrahydrofuran (THF)): insoluble

Compound: hexafluoroantimonate of tetrakis{p-di(3-cyanopropyl)aminophenyl}phenylenediimonium [Comparative Sample 1]
- solubility in MEK (film preparation) ([2]; 1.2 parts in 18.8 parts of MEK, impossible to prepare a film): poor
- solubility cyclohexane ([7]; column head cyclohexane (text: cyclohexanone)): insoluble
- solubility DAA ([7]; in diacetone alcohol (DAA)): insoluble
- solubility MEK ([7]; in methyl ethyl ketone (MEK)): insoluble
